Data published in ChEMBL document CHEMBL5653631, “A Potent and Selective ULK1 Inhibitor Suppresses Autophagy and Sensitizes Cancer Cells to Nutrient Stress” (iScience, 2018).

Legend:
[1] = molecular target: Dual specificity tyrosine-phosphorylation-regulated kinase 1B (Homo sapiens) (UniProt Q9Y463); assay: Inhibition of human recombinant DYRK1B at 40 nM related to control ULK1
[2] = molecular target: Myosin light chain kinase, smooth muscle (Homo sapiens) (UniProt Q15746); assay: Inhibition of human recombinant smMLCK at 40 nM related to control ULK1
Chain of Myosin light chain kinase, smooth muscle (Homo sapiens) (Q15746 whole entry): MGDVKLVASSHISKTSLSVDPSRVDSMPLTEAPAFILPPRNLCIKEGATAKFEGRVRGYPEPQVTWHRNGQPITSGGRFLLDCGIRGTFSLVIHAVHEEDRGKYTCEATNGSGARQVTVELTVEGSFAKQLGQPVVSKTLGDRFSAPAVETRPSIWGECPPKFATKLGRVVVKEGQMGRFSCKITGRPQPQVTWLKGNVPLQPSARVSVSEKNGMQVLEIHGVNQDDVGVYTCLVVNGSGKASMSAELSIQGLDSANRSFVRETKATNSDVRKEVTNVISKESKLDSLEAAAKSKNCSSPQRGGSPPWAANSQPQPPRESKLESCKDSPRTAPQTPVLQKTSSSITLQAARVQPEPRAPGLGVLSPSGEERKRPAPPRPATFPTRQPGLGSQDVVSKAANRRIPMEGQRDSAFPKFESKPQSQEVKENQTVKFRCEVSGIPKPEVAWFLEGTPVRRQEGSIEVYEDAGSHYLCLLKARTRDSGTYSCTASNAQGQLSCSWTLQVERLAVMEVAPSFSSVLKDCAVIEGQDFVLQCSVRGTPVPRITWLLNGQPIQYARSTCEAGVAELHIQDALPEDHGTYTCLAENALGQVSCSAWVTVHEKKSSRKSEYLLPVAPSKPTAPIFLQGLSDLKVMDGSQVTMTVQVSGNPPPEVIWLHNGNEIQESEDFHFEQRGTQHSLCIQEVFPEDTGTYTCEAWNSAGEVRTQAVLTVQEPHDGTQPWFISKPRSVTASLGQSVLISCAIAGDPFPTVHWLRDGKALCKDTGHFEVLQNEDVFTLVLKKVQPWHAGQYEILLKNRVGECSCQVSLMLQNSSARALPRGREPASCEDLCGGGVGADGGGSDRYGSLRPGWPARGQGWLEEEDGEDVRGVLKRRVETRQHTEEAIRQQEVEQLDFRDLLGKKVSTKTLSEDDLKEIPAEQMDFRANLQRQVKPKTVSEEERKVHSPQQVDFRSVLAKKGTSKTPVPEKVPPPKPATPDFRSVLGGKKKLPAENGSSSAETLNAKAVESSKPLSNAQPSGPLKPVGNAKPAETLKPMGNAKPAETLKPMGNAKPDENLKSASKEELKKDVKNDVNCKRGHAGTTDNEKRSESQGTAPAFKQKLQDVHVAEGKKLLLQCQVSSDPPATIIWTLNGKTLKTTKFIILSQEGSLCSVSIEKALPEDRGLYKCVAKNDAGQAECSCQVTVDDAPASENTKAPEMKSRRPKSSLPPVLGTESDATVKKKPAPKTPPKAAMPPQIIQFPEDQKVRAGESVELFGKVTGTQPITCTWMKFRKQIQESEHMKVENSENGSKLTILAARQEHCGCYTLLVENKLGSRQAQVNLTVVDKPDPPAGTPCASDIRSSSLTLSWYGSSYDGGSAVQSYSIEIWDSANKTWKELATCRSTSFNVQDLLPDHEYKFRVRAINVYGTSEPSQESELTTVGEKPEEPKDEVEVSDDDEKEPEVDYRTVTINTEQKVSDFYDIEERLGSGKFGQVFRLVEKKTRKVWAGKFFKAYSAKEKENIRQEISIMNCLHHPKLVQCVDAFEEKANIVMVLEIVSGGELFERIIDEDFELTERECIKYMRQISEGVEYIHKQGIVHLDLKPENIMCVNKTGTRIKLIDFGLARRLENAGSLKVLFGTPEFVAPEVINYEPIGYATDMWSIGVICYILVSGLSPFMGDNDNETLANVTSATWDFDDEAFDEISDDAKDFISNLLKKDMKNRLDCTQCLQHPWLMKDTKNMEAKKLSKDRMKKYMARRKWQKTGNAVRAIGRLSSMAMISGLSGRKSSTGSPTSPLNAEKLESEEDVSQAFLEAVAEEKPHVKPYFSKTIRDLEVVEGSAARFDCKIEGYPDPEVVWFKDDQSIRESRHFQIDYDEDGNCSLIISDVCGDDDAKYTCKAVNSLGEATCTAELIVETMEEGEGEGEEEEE

[3] = molecular target: Calcium/calmodulin-dependent protein kinase type 1 (Homo sapiens) (UniProt Q14012); assay: Inhibition of human recombinant CaMK1a at 15 nM in presence of ATP by radiometric assay relative to control
Chain of Calcium/calmodulin-dependent protein kinase type 1 (Homo sapiens) (Q14012 whole entry, looked up): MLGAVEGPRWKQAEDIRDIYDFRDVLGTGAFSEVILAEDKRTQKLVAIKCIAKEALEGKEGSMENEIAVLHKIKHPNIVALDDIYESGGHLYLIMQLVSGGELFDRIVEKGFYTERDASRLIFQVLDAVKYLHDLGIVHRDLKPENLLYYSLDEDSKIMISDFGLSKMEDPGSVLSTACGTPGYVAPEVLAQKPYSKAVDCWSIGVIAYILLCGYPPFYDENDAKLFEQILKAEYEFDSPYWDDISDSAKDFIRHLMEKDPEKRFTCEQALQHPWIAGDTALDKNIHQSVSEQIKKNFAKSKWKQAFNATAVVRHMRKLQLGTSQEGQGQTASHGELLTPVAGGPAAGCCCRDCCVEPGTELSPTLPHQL

[4] = molecular target: MAP kinase-interacting serine/threonine-protein kinase 2 (Homo sapiens, UniProt Q9HBH9); assay: Inhibition of human recombinant MNK2 at 15 nM in presence of ATP by radiometric assay relative to control
[5] = molecular target: T1, Serine/threonine-protein kinase haspin (Homo sapiens) (UniProt Q8TF76); assay: Inhibition of human recombinant Haspin at 15 nM related to control ULK1
T1 sequence (whole entry): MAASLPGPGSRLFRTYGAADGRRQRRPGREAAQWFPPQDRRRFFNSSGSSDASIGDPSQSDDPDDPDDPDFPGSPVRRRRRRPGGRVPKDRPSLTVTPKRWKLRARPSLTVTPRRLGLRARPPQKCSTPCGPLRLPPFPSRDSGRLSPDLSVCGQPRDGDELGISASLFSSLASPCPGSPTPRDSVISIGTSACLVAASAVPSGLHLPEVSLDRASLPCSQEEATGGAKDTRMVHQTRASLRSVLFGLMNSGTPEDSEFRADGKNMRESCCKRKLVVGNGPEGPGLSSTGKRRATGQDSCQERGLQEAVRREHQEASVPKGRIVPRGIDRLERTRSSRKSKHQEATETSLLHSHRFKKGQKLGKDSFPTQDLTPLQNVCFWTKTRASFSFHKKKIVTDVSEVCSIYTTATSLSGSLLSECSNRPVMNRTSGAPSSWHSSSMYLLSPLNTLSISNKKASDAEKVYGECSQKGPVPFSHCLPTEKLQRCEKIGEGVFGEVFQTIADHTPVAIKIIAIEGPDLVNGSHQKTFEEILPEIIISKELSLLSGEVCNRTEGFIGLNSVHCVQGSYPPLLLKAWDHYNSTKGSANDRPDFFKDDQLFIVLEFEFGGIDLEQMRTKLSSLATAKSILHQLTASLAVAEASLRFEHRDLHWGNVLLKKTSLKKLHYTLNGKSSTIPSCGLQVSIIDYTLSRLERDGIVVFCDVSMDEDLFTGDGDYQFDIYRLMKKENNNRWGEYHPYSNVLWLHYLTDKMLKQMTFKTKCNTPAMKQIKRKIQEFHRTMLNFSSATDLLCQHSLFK

[6] = molecular target: T2, Serine/threonine-protein kinase Sgk3 (Homo sapiens) (UniProt Q96BR1); assay: Inhibition of human recombinant SGK3 at 15 nM related to control ULK1
T2 sequence (whole entry): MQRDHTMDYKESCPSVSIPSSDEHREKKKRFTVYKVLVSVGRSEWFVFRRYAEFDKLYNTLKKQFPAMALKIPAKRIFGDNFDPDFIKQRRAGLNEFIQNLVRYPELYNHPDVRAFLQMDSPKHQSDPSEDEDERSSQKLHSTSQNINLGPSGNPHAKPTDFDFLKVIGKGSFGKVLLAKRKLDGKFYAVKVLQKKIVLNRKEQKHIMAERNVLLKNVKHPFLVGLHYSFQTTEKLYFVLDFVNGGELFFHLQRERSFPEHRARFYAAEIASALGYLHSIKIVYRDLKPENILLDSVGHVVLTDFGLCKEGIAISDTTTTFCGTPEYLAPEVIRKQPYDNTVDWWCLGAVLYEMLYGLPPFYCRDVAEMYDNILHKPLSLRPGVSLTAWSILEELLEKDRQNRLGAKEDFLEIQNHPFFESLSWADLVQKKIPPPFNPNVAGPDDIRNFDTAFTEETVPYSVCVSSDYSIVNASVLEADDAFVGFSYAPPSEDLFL

[7] = molecular target: Myosin light chain kinase 2, skeletal/cardiac muscle (Homo sapiens) (UniProt Q9H1R3); assay: Inhibition of human recombinant skMLCK at 15 nM related to control ULK1
Chain of Myosin light chain kinase 2, skeletal/cardiac muscle (Homo sapiens) (Q9H1R3 whole entry): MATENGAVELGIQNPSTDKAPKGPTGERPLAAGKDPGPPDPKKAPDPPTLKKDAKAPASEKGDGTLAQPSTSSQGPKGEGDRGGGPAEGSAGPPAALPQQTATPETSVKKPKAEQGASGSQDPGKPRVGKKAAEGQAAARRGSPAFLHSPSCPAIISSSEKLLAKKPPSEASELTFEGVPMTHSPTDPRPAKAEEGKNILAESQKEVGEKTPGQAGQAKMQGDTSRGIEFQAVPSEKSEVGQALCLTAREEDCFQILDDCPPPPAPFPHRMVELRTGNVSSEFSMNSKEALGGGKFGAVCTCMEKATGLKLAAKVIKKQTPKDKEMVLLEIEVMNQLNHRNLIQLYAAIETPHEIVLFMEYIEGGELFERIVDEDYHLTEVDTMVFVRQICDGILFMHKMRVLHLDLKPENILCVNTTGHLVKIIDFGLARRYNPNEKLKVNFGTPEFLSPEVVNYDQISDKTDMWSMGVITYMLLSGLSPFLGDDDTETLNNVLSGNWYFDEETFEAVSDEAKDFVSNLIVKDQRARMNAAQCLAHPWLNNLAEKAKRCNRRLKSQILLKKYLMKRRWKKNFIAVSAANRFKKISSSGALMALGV

[8] = molecular target: Focal adhesion kinase 1 (Homo sapiens) (UniProt Q05397); assay: Inhibition of human recombinant FAK at 500 nM in presence of ATP by radiometric assay relative to control
[9] = molecular target: Macrophage colony-stimulating factor 1 receptor (Homo sapiens) (UniProt P07333); assay: Inhibition of human recombinant FMS at 500 nM in presence of ATP by radiometric assay relative to control
Chain of Macrophage colony-stimulating factor 1 receptor (Homo sapiens) (P07333 whole entry): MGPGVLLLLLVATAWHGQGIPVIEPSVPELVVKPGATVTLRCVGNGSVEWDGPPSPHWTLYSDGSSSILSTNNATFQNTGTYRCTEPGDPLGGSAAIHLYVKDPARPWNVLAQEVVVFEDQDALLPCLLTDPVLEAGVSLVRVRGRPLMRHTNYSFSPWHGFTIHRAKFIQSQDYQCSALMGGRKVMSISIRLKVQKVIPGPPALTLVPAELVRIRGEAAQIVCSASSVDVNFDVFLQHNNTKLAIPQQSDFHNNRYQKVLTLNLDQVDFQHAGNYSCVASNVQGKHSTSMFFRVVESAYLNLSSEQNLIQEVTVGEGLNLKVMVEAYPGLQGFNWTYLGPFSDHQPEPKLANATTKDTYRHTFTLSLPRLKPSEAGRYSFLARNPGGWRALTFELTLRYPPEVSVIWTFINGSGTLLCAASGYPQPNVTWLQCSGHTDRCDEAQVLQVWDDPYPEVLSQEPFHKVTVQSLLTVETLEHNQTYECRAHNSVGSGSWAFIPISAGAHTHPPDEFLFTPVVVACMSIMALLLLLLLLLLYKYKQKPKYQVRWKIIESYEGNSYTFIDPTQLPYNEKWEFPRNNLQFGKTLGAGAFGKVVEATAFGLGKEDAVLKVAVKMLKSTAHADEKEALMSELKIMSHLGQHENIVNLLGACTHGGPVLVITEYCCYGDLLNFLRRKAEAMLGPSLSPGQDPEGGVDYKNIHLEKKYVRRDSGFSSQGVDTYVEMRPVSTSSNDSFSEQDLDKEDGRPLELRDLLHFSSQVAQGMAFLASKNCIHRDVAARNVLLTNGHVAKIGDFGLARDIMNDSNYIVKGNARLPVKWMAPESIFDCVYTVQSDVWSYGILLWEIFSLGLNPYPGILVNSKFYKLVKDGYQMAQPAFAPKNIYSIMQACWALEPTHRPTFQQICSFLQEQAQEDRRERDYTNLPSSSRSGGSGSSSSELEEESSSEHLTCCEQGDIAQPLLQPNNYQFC

[10] = molecular target: Tyrosine-protein kinase JAK2 (Homo sapiens) (UniProt O60674); assay: Inhibition of human recombinant JAK2 at 500 nM in presence of ATP by radiometric assay relative to control
Chain of Tyrosine-protein kinase JAK2 (Homo sapiens) (O60674 whole entry): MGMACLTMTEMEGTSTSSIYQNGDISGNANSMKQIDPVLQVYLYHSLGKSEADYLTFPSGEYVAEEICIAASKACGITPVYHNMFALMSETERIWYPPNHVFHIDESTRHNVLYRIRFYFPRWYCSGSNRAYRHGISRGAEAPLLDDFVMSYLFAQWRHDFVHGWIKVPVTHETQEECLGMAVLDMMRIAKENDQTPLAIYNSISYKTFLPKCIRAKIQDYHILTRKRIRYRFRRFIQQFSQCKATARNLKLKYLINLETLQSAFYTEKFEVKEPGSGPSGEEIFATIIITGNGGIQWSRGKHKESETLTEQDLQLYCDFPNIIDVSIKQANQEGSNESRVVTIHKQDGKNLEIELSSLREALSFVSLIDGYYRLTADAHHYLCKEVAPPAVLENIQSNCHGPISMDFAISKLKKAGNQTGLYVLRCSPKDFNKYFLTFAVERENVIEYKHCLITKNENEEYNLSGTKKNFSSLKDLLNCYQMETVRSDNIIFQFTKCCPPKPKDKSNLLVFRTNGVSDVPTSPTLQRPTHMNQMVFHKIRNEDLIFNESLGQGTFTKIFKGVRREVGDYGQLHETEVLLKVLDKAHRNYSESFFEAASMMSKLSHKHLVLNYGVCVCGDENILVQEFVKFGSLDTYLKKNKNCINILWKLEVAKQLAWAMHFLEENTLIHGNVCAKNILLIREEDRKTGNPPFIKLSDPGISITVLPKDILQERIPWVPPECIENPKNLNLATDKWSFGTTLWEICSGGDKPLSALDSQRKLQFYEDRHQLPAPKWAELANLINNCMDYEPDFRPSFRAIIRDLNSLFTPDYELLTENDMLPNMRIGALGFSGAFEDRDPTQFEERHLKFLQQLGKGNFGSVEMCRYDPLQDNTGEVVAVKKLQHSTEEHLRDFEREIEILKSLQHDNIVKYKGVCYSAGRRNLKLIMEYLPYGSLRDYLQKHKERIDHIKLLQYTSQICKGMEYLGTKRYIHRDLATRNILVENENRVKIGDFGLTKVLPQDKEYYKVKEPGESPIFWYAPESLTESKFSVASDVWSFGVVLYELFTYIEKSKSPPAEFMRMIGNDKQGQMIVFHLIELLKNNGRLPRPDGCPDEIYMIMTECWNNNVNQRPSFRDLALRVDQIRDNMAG

[11] = molecular target: T3, Serine/threonine-protein kinase TAO3 (Homo sapiens) (UniProt Q9H2K8); assay: Inhibition of human recombinant TAO3 at 500 nM in presence of ATP by radiometric assay relative to control
T3 sequence (whole entry): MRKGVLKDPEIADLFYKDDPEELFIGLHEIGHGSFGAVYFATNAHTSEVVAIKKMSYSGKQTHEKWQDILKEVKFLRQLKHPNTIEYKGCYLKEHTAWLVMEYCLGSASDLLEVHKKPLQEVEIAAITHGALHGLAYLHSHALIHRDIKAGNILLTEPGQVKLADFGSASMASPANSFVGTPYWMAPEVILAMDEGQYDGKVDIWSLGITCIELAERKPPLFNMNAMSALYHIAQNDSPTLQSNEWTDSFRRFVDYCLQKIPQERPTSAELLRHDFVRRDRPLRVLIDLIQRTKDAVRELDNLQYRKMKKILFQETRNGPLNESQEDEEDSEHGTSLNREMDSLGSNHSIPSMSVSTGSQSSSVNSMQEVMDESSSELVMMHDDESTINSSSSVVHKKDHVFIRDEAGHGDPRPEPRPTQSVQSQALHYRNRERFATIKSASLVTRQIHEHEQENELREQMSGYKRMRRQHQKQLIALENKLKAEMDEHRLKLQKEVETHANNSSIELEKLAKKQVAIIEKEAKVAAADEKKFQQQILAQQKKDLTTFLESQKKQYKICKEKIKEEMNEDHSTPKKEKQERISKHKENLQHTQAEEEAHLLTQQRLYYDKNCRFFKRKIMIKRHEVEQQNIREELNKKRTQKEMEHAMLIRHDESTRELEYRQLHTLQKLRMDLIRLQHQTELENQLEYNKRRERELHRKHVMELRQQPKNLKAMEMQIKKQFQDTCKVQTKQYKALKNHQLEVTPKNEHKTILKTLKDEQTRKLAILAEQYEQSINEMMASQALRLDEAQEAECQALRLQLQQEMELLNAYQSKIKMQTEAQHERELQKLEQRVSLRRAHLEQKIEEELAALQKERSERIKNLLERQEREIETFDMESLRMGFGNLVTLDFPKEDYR

[12] = molecular target: Serine/threonine-protein kinase PLK3 (Homo sapiens) (UniProt Q9H4B4); assay: Inhibition of human recombinant PLK3 at 500 nM related to control ULK1

`O=C(N[C@@H](C1CC1)C(F)(F)F)c1cc(-c2cnn3cc(-c4ccc(F)cc4)cnc23)cs1` was tested. Which fold change (FC) [1] did it give?
Its fold change (FC) is 0.42.

And the fold change (FC) [2]?
The fold change (FC) was 0.07.

For `CC(C)[C@H](NC(=O)c1cc(-c2cnn3cc(-c4ccc(OCCN5CCCCC5)cc4)cnc23)cs1)C(F)(F)F`, which inhibition [3] is on record?
Its inhibition is 7%.

And the inhibition [4]?
The inhibition was 26%.

And the fold change (FC) [5]?
The fold change (FC) was 0.

And the fold change (FC) [6]?
The fold change (FC) was 0.05.

What about the fold change (FC) [7] of the same molecule?
The fold change (FC) was 0.13.

What does the source list for `CNC(=O)c1ccccc1Oc1nc(Nc2cc(OC)c(OC)c(OC)c2)ncc1Br`?
inhibition [8]: 71%; inhibition [9]: 19%; inhibition [10]: 78%; inhibition [11]: 0%; fold change (FC) [12]: 0
